Measurements reported in PubChem BioAssay (NCI).
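Following 48 hours of exposure in 96-well plates, responses at five concentrations were used to interpolate endpoints linearly. GI50: concentration for 50% inhibition of growth. The concentration for full growth arrest is given as TGI.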

System: HT29 colon
Test: NCI-60 cell line screen, 48 h

| Structure (SMILES) | GI50 | TGI |
| --- | --- | --- |
| Clc1cccc(Cc2cn3cc(-c4ccccc4)nc3s2)c1Cl | > 100 µM | > 100 µM |
| O=C1/C(=C/c2ccc([N+](=O)[O-])cc2)COc2ccc(O)c(O)c21 | 2.2 µM | 5.85 µM |
| CN(C)c1ccc(-c2cc(-c3ccc(Nc4nc(Nc5ccc(Cl)cc5)nc(Nc5ccc(Cl)cc5)n4)cc3)no2)cc1 | 5.08 µM | 66.5 µM |
| NC(N)=N/N=C/c1c(-c2ccc(Cl)c([N+](=O)[O-])c2)nc2sc(Cl)cn12 | – | 6.85 µM |

System: OVCAR-3 ovarian
Test: NCI-60 cell line screen, 48 h

| Structure (SMILES) | GI50 | TGI |
| --- | --- | --- |
| Clc1cccc(Cc2cn3cc(-c4ccccc4)nc3s2)c1Cl | 37.9 µM | > 100 µM |
| O=C1/C(=C/c2ccc([N+](=O)[O-])cc2)COc2ccc(O)c(O)c21 | 0.79 µM | 2.14 µM |
| CN(C)c1ccc(-c2cc(-c3ccc(Nc4nc(Nc5ccc(Cl)cc5)nc(Nc5ccc(Cl)cc5)n4)cc3)no2)cc1 | 3.42 µM | 8.96 µM |

System: RPMI-8226 leukemia
Test: NCI-60 cell line screen, 48 h

| Structure (SMILES) | GI50 | TGI |
| --- | --- | --- |
| Clc1cccc(Cc2cn3cc(-c4ccccc4)nc3s2)c1Cl | > 100 µM | > 100 µM |
| O=C1/C(=C/c2ccc([N+](=O)[O-])cc2)COc2ccc(O)c(O)c21 | 0.316 µM | 1.01 µM |
| CN(C)c1ccc(-c2cc(-c3ccc(Nc4nc(Nc5ccc(Cl)cc5)nc(Nc5ccc(Cl)cc5)n4)cc3)no2)cc1 | 2.6 µM | 17 µM |
| NC(N)=N/N=C/c1c(-c2ccc(Cl)c([N+](=O)[O-])c2)nc2sc(Cl)cn12 | – | > 100 µM |
| COC(=O)c1ccc2[nH]c(O)c(C(=Nc3ccc(N(C)C(=O)CN4CCN(C)CC4)cc3)c3ccc(C)cc3)c2c1 | 0.494 µM | 2.47 µM |

System: MALME-3M melanoma
Test: NCI-60 cell line screen, 48 h

| Structure (SMILES) | GI50 | TGI |
| --- | --- | --- |
| Clc1cccc(Cc2cn3cc(-c4ccccc4)nc3s2)c1Cl | 56.2 µM | > 100 µM |
| O=C1/C(=C/c2ccc([N+](=O)[O-])cc2)COc2ccc(O)c(O)c21 | 1.84 µM | 5.22 µM |
| CN(C)c1ccc(-c2cc(-c3ccc(Nc4nc(Nc5ccc(Cl)cc5)nc(Nc5ccc(Cl)cc5)n4)cc3)no2)cc1 | 13 µM | 36.9 µM |
| NC(N)=N/N=C/c1c(-c2ccc(Cl)c([N+](=O)[O-])c2)nc2sc(Cl)cn12 | – | 5.58 µM |
| COC(=O)c1ccc2[nH]c(O)c(C(=Nc3ccc(N(C)C(=O)CN4CCN(C)CC4)cc3)c3ccc(C)cc3)c2c1 | 0.618 µM | 1.88 µM |

System: NCI-H460 lung
Test: NCI-60 cell line screen, 48 h

| Structure (SMILES) | GI50 | TGI |
| --- | --- | --- |
| Clc1cccc(Cc2cn3cc(-c4ccccc4)nc3s2)c1Cl | > 100 µM | > 100 µM |
| O=C1/C(=C/c2ccc([N+](=O)[O-])cc2)COc2ccc(O)c(O)c21 | 1.74 µM | 3.84 µM |
| CN(C)c1ccc(-c2cc(-c3ccc(Nc4nc(Nc5ccc(Cl)cc5)nc(Nc5ccc(Cl)cc5)n4)cc3)no2)cc1 | 3.03 µM | 12.3 µM |
| NC(N)=N/N=C/c1c(-c2ccc(Cl)c([N+](=O)[O-])c2)nc2sc(Cl)cn12 | – | 8.08 µM |

System: HL-60(TB) leukemia
Test: NCI-60 cell line screen, 48 h

| Structure (SMILES) | GI50 | TGI |
| --- | --- | --- |
| Clc1cccc(Cc2cn3cc(-c4ccccc4)nc3s2)c1Cl | > 100 µM | > 100 µM |
| O=C1/C(=C/c2ccc([N+](=O)[O-])cc2)COc2ccc(O)c(O)c21 | 0.896 µM | 6.45 µM |
| CN(C)c1ccc(-c2cc(-c3ccc(Nc4nc(Nc5ccc(Cl)cc5)nc(Nc5ccc(Cl)cc5)n4)cc3)no2)cc1 | 2.01 µM | 4.73 µM |
| NC(N)=N/N=C/c1c(-c2ccc(Cl)c([N+](=O)[O-])c2)nc2sc(Cl)cn12 | – | > 100 µM |

System: NCI-H522 lung
Test: NCI-60 cell line screen, 48 h

| Structure (SMILES) | GI50 | TGI |
| --- | --- | --- |
| Clc1cccc(Cc2cn3cc(-c4ccccc4)nc3s2)c1Cl | 19.4 µM | > 100 µM |
| O=C1/C(=C/c2ccc([N+](=O)[O-])cc2)COc2ccc(O)c(O)c21 | 0.204 µM | 0.474 µM |
| CN(C)c1ccc(-c2cc(-c3ccc(Nc4nc(Nc5ccc(Cl)cc5)nc(Nc5ccc(Cl)cc5)n4)cc3)no2)cc1 | 2.57 µM | 11.3 µM |
| NC(N)=N/N=C/c1c(-c2ccc(Cl)c([N+](=O)[O-])c2)nc2sc(Cl)cn12 | – | 3.07 µM |

System: OVCAR-4 ovarian
Test: NCI-60 cell line screen, 48 h

| Structure (SMILES) | GI50 | TGI |
| --- | --- | --- |
| Clc1cccc(Cc2cn3cc(-c4ccccc4)nc3s2)c1Cl | 3.85 µM | 55.2 µM |
| O=C1/C(=C/c2ccc([N+](=O)[O-])cc2)COc2ccc(O)c(O)c21 | 1.44 µM | 2.78 µM |
| CN(C)c1ccc(-c2cc(-c3ccc(Nc4nc(Nc5ccc(Cl)cc5)nc(Nc5ccc(Cl)cc5)n4)cc3)no2)cc1 | 7.19 µM | > 100 µM |

System: SNB-19 CNS
Test: NCI-60 cell line screen, 48 h

| Structure (SMILES) | GI50 | TGI |
| --- | --- | --- |
| Clc1cccc(Cc2cn3cc(-c4ccccc4)nc3s2)c1Cl | 24.4 µM | > 100 µM |
| O=C1/C(=C/c2ccc([N+](=O)[O-])cc2)COc2ccc(O)c(O)c21 | 1.56 µM | 3.1 µM |
| CN(C)c1ccc(-c2cc(-c3ccc(Nc4nc(Nc5ccc(Cl)cc5)nc(Nc5ccc(Cl)cc5)n4)cc3)no2)cc1 | 18.7 µM | > 100 µM |

System: M14 melanoma
Test: NCI-60 cell line screen, 48 h

| Structure (SMILES) | GI50 | TGI |
| --- | --- | --- |
| Clc1cccc(Cc2cn3cc(-c4ccccc4)nc3s2)c1Cl | > 100 µM | > 100 µM |
| O=C1/C(=C/c2ccc([N+](=O)[O-])cc2)COc2ccc(O)c(O)c21 | 1.54 µM | 3.3 µM |
| CN(C)c1ccc(-c2cc(-c3ccc(Nc4nc(Nc5ccc(Cl)cc5)nc(Nc5ccc(Cl)cc5)n4)cc3)no2)cc1 | 2.62 µM | 13.3 µM |

System: HCC-2998 colon
Test: NCI-60 cell line screen, 48 h

| Structure (SMILES) | GI50 | TGI |
| --- | --- | --- |
| Clc1cccc(Cc2cn3cc(-c4ccccc4)nc3s2)c1Cl | 59.5 µM | > 100 µM |
| O=C1/C(=C/c2ccc([N+](=O)[O-])cc2)COc2ccc(O)c(O)c21 | 1.76 µM | 3.38 µM |
| CN(C)c1ccc(-c2cc(-c3ccc(Nc4nc(Nc5ccc(Cl)cc5)nc(Nc5ccc(Cl)cc5)n4)cc3)no2)cc1 | 7.37 µM | 96.7 µM |
| NC(N)=N/N=C/c1c(-c2ccc(Cl)c([N+](=O)[O-])c2)nc2sc(Cl)cn12 | – | > 100 µM |

System: HOP-62 NSCLC
Test: NCI-60 cell line screen, 48 h

| Structure (SMILES) | GI50 | TGI |
| --- | --- | --- |
| Clc1cccc(Cc2cn3cc(-c4ccccc4)nc3s2)c1Cl | 3.9 µM | 47.7 µM |
| O=C1/C(=C/c2ccc([N+](=O)[O-])cc2)COc2ccc(O)c(O)c21 | 2.57 µM | 6.34 µM |
| CN(C)c1ccc(-c2cc(-c3ccc(Nc4nc(Nc5ccc(Cl)cc5)nc(Nc5ccc(Cl)cc5)n4)cc3)no2)cc1 | 4.8 µM | 24.1 µM |
| NC(N)=N/N=C/c1c(-c2ccc(Cl)c([N+](=O)[O-])c2)nc2sc(Cl)cn12 | – | > 100 µM |

System: T-47D breast
Test: NCI-60 cell line screen, 48 h

| Structure (SMILES) | GI50 | TGI |
| --- | --- | --- |
| Clc1cccc(Cc2cn3cc(-c4ccccc4)nc3s2)c1Cl | 0.963 µM | > 100 µM |
| O=C1/C(=C/c2ccc([N+](=O)[O-])cc2)COc2ccc(O)c(O)c21 | 1.32 µM | 3.65 µM |
| CN(C)c1ccc(-c2cc(-c3ccc(Nc4nc(Nc5ccc(Cl)cc5)nc(Nc5ccc(Cl)cc5)n4)cc3)no2)cc1 | 3.69 µM | 78.5 µM |

System: MCF7 breast
Test: NCI-60 cell line screen, 48 h

| Structure (SMILES) | GI50 | TGI |
| --- | --- | --- |
| Clc1cccc(Cc2cn3cc(-c4ccccc4)nc3s2)c1Cl | 11.5 µM | > 100 µM |
| CN(C)c1ccc(-c2cc(-c3ccc(Nc4nc(Nc5ccc(Cl)cc5)nc(Nc5ccc(Cl)cc5)n4)cc3)no2)cc1 | 2.46 µM | 10.7 µM |
| NC(N)=N/N=C/c1c(-c2ccc(Cl)c([N+](=O)[O-])c2)nc2sc(Cl)cn12 | – | 6.3 µM |

System: RXF 393 renal
Test: NCI-60 cell line screen, 48 h

| Structure (SMILES) | GI50 | TGI |
| --- | --- | --- |
| Clc1cccc(Cc2cn3cc(-c4ccccc4)nc3s2)c1Cl | 3.13 µM | 18.7 µM |
